Assays:
PC-9 = assay: MTT assay, antiproliferative activity against PC-9; format: cell-based, human
Protocol: (§1) Human gastric carcinoma cell line MGC-803, human breast adenocarcinoma cell line MCF-7, human lung carcinoma cell lines (PC-9, A549, and H1975), and human immortalized gastric mucosa epithelial cell line GES-1 were purchased from the Cell Bank of Shanghai Institute of Biochemistry and Cell Biology (Shanghai, China), and all of them were cultured in RPMI-1640 and DMEM complete medium (Solarbio, Beijing, China) at 37 °C in a 5% CO2 humidified atmosphere.
(§2) Briefly, cells were incubated with different concentrations of the test compound for different hours in each experiment for 72 h, followed by adding 20 μL MTT solution to each well, which was then incubated for another 4 h. An enzyme-linked immunosorbent assay reader (BioTek, South Plainfield, VT, USA) was used to measure absorbance values at 490 nm, and SPSS20 software was used to calculate the cell viability and IC50 values.

A549 = assay: MTT assay, antiproliferative activity against A549; format: cell-based, human
Protocol: as §1, §2

MGC-803 = assay: MTT assay, antiproliferative activity against MGC-803; format: cell-based, human
Protocol: as §1, §2

H1975 = assay: MTT assay, antiproliferative activity against H1975; format: cell-based, human
Protocol: as §1, §2

MCF-7 = assay: MTT assay, antiproliferative activity against MCF-7; format: cell-based, human
Protocol: as §1, §2

GES-1 = assay: MTT assay, toxicity toward normal gastric epithelial cell line GES-1; format: cell-based, human; details: MTT, 72 h
Protocol: as §1, §2

[1] = test system: xenograft model carrying MGC-803 cells; assay: In vivo anti-tumor activity, gastric cancer xenograft model; parameters: species or system mice; details: 10 mg/kg intravenous every three days
Protocol: Male mice (23–25 g, aged 5–6 weeks) were obtained from Beijing Vital River Laboratory Animal Technology Co., Ltd. (Beijing, China). All animal treatments were performed under the guidelines of the National Institutes of Health Guide for the Care and Use of Laboratory Animals using an approved animal protocol by the Zhengzhou University Committee on Animal Care (2020CHEM-ZZU-086). 1.0 × 10^7 MGC-803 cells were implanted in the right flank of mice subcutaneously. After 16 days, the tumor volume reached 100 mm^3, followed by being randomly divided into three groups (n = 7): solvent group, 5-Fu (10 mg/kg) group, and compound 18 (25 mg/kg) group. An intravenous injection of 5-Fu (10 mg/kg) was administered into the corresponding mice group every three days, while the mice in compound 18 group received intragastric administration of 25 mg/kg compound 18 per day for 21 days. Tumor diameter and body weight were measured every two days, followed by the euthanization of the mice after 34 days, after which tumor weights were.

| Structure (SMILES) | IC50 (PC-9; 72 h) | IC50 (A549; 72 h) | IC50 (MGC-803; 72 h) | IC50 (H1975; 72 h) | IC50 (MCF-7; 72 h) | IC50 (GES-1) | average tumor volume [1] | body weight [1] | tumor weight [1] | IC50 (PC-9; Homo sapiens, PC-9, 72 h) | IC50 (A549; Homo sapiens, A549, 72 h) | IC50 (MGC-803; Homo sapiens, MGC-803, 72 h) | IC50 (H1975; Homo sapiens, NCI-H1975, 72 h) | IC50 (MCF-7; Homo sapiens, MCF7, 72 h) | IC50 (GES-1; Homo sapiens, GES1) | melting point |
| --- | --- | --- | --- | --- | --- | --- | --- | --- | --- | --- | --- | --- | --- | --- | --- | --- |
| O=c1[nH]cc(F)c(=O)[nH]1 [5-Fu, reference compound] | 3.68 ± 1.06 µM | 5.12 ± 1.73 µM | 4.11 ± 0.72 µM | 2.68 ± 0.86 µM | 4.51 ± 1.23 µM | 3.26 ± 1.07 µM | decreased the average tumor volume | did not cause significant changes in body weight | decreased the average tumor volume and tumor weight |  |  |  |  |  |  |  |
| c1ccc(Nc2nc(-c3ccccc3)nc3ccccc23)cc1 [compound 6, N,2-Diphenylquinazolin-4-amine] |  |  |  |  |  |  |  |  |  | 15.8 ± 0.52 µM | 10.3 ± 0.98 µM | 6.23 ± 0.12 µM | 20.1 ± 1.62 µM | 12.6 ± 0.16 µM | > 30 µM |  |
| Fc1ccc(Nc2nc(-c3ccccc3)nc3ccccc23)cc1 [compound 7, N-(4-Fluorophenyl)-2-phenylquinazolin-4-amine] |  |  |  |  |  |  |  |  |  | 10.6 ± 2.16 µM | 4.82 ± 0.99 µM | 4.15 ± 1.16 µM | 12.6 ± 2.89 µM | 8.75 ± 1.76 µM | 20.8 ± 3.29 µM |  |
| Clc1ccc(Nc2nc(-c3ccccc3)nc3ccccc23)cc1 [compound 8, N-(4-Chlorophenyl)-2-phenylquinazolin-4-amine] |  |  |  |  |  |  |  |  |  | 8.75 ± 1.59 µM | 6.58 ± 1.31 µM | 3.57 ± 0.89 µM | 10.6 ± 2.46 µM | 6.96 ± 1.57 µM | > 30 µM |  |
| Brc1ccc(Nc2nc(-c3ccccc3)nc3ccccc23)cc1 [compound 9, N-(4-Bromophenyl)-2-phenylquinazolin-4-amine] |  |  |  |  |  |  |  |  |  | 4.31 ± 0.96 µM | 4.75 ± 1.36 µM | 1.89 ± 0.59 µM | 6.65 ± 1.57 µM | 5.15 ± 1.16 µM | 18.6 ± 1.72 µM | 187 to 193 °C |
| O=[N+]([O-])c1ccc(Nc2nc(-c3ccccc3)nc3ccccc23)cc1 [compound 10, N-(4-Nitrophenyl)-2-phenylquinazolin-4-amine] |  |  |  |  |  |  |  |  |  | 12.5 ± 2.83 µM | 15.7 ± 1.89 µM | 8.32 ± 2.06 µM | 25.8 ± 2.2 µM | 12.2 ± 1.91 µM | > 30 µM |  |
| FC(F)(F)c1ccc(Nc2nc(-c3ccccc3)nc3ccccc23)cc1 [compound 11, 2-Phenyl-N-(4-(trifluoromethyl)phenyl)quinazolin-4-amine] |  |  |  |  |  |  |  |  |  | 20.8 ± 2.16 µM | 25.4 ± 3.11 µM | 11 ± 1.93 µM | 22.9 ± 2.69 µM | 15.7 ± 1.82 µM | 25.4 ± 3.51 µM | 190 to 195 °C |
